Data taken from US20250041305A1, “PHARMACEUTICAL COMPOSITION OF SEPIAPTERIN” (PTC Therapeutics, Inc., priority 2021, published 2025).

Test: Roller compaction processability observation and in-process data
Conditions: unformulated
Source text: Formulations were manufactured at 100 g scale by roller compaction using the compositions as described in Table 17. The formulations were designed to evaluate the effect of formulation variables including drug loading, ratios of diluents and levels of other excipients on the processability, as shown in Table 17.
In the tables above, BD refers to Bulk Density, DT refers to Disintegration time, HR refers to Hausner ratio and TD refers to tapped density. Disintegration time is for a 0.5-inch ribbon. The plus signs in the table refer to the following observed characteristics: “+” is soft, “++” is medium hard, “+++” is hard, and “++++” is very hard.
To improve the flow properties of the sepiapterin composition of the invention, a dry granulation approach was selected. The manufacturing process included preblending, roller compaction followed by milling, final blending, and sachet filling. The batch analyses data from the selected manufacturing process yielded acceptable drug product within the specification limit. […]

bulk density: low bulk density
flow characteristics: poor flow characteristics
Compound: C[C@H](O)C(=O)C1=Nc2c(nc(N)[nH]c2=O)NC1 [sepiapterin]
